Source: PubChem BioAssay (NCI)
Where “and” joins values, the source holds several entries; their conditions need not be identical. Equal entries are not always repeated.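 Where inhibition never reached the appropriate level, the endpoint shown equals the highest concentration tested. Otherwise, values were interpolated linearly from a five-concentration, 48-hour dose response in 96-well plates. GI50: concentration for 50% inhibition of growth. TGI: total growth inhibition.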

Columns and labels:
Experiment in all cases: growth of human tumour cells (NCI), 48 h
NCI-H522 lung = test system: NCI-H522 lung
RXF 393 renal = test system: RXF 393 renal
K-562 leukemia = test system: K-562 leukemia
UACC-257 melanoma = test system: UACC-257 melanoma
NCI-H226 lung = test system: NCI-H226 lung
SW-620 colon = test system: SW-620 colon
ACHN renal = test system: ACHN renal
U251 CNS = test system: U251 CNS
CAKI-1 renal = test system: CAKI-1 renal
SF-539 CNS = test system: SF-539 CNS

SMILES: Oc1c(N=Nc2ccccc2)c2ccccc2c2ccc3ccccc3c12
- TGI (NCI-H522 lung): > 100 µM
- TGI (RXF 393 renal): > 100 µM
- TGI (K-562 leukemia): > 100 µM
- TGI (UACC-257 melanoma): > 100 µM
- TGI (NCI-H226 lung): > 100 µM
- TGI (SW-620 colon): > 100 µM
- TGI (ACHN renal): > 100 µM
- TGI (U251 CNS): > 100 µM
- TGI (CAKI-1 renal): > 100 µM
- TGI (SF-539 CNS): 85.2 µM

SMILES: CN1CCn2c(c(Sc3ccc(C(=O)NO)cc3)c3ccccc32)C1=O
- GI50 (NCI-H522 lung): 1.13 µM
- TGI (NCI-H522 lung): 2.66 µM
- GI50 (RXF 393 renal): 1.62 µM
- TGI (RXF 393 renal): 3.17 µM
- GI50 (K-562 leukemia): 3.77 µM
- TGI (K-562 leukemia): > 100 µM
- GI50 (UACC-257 melanoma): 1.51 µM
- TGI (UACC-257 melanoma): 3.56 µM
- GI50 (NCI-H226 lung): 1.78 µM
- TGI (NCI-H226 lung): 3.9 µM
- GI50 (SW-620 colon): 1.86 µM
- TGI (SW-620 colon): 5.14 µM
- GI50 (ACHN renal): 2.63 µM
- TGI (ACHN renal): 8.72 µM
- GI50 (U251 CNS): 1.79 µM
- TGI (U251 CNS): 4 µM
- GI50 (CAKI-1 renal): 3.86 µM
- TGI (CAKI-1 renal): 11 µM
- GI50 (SF-539 CNS): 1.56 µM
- TGI (SF-539 CNS): 3.48 µM

SMILES: N#CC(NNC(=O)c1ccccc1O)c1ccccc1 (stereo not given)
- TGI (NCI-H522 lung): 52.2 µM
- TGI (RXF 393 renal): 61.8 µM
- TGI (K-562 leukemia): > 100 µM
- TGI (UACC-257 melanoma): > 100 µM
- TGI (NCI-H226 lung): 76.6 µM
- TGI (SW-620 colon): > 100 µM
- TGI (ACHN renal): > 100 µM
- TGI (U251 CNS): > 100 µM
- TGI (CAKI-1 renal): > 100 µM
- TGI (SF-539 CNS): > 100 µM

SMILES: CCCCCN(CCCCC)CC(O)c1cc2c(c3ccccc13)CCCC2 (stereo not given)
- GI50 (NCI-H522 lung): 2.02 µM and 3.24 µM
- TGI (NCI-H522 lung): 7.72 µM and 13.4 µM
- GI50 (RXF 393 renal): 2.31 µM and 2.88 µM
- TGI (RXF 393 renal): 6.71 µM and 7.13 µM
- GI50 (K-562 leukemia): 2.56 µM and 16.3 µM
- TGI (K-562 leukemia): 10.9 µM and > 100 µM
- GI50 (UACC-257 melanoma): 4.88 µM and 13.8 µM
- TGI (UACC-257 melanoma): 17.5 µM and 30.2 µM
- GI50 (NCI-H226 lung): 5.64 µM and 11 µM
- TGI (NCI-H226 lung): 20.3 µM and 29.2 µM
- GI50 (SW-620 colon): 5.99 µM
- TGI (SW-620 colon): 19.4 µM
- GI50 (ACHN renal): 5.03 µM and 8.43 µM
- TGI (ACHN renal): 17.9 µM and 22.6 µM
- GI50 (U251 CNS): 6.33 µM and 11.5 µM
- TGI (U251 CNS): 20.3 µM and 29.6 µM
- GI50 (CAKI-1 renal): 3.44 µM and 4.29 µM
- TGI (CAKI-1 renal): 10.9 µM and 20.2 µM
- GI50 (SF-539 CNS): 4.88 µM and 10.9 µM
- TGI (SF-539 CNS): 16.9 µM and 23.6 µM

SMILES: COCCNC(=O)c1ccc(-c2nc3ccc4[nH]ncc4c3c3c2CCCC3)cc1
- GI50 (NCI-H522 lung): 1.92 µM
- TGI (NCI-H522 lung): 12.4 µM
- GI50 (RXF 393 renal): 0.498 µM
- TGI (RXF 393 renal): 3.7 µM
- GI50 (K-562 leukemia): 3.86 µM
- TGI (K-562 leukemia): > 100 µM
- GI50 (UACC-257 melanoma): 5.38 µM
- TGI (UACC-257 melanoma): > 100 µM
- GI50 (NCI-H226 lung): 2.47 µM
- TGI (NCI-H226 lung): > 100 µM
- GI50 (SW-620 colon): 1.83 µM
- TGI (SW-620 colon): 13.9 µM
- GI50 (ACHN renal): 1.14 µM
- TGI (ACHN renal): 57.7 µM
- GI50 (U251 CNS): 2.6 µM
- TGI (U251 CNS): > 100 µM
- GI50 (CAKI-1 renal): 0.689 µM
- TGI (CAKI-1 renal): 7.29 µM
- GI50 (SF-539 CNS): 1.71 µM
- TGI (SF-539 CNS): 8.01 µM

SMILES: C=CC(=O)Nc1cccc(C)c1Nc1ncc2cc(-c3c(Cl)c(OC)cc(OC)c3Cl)ccc2n1
- GI50 (NCI-H522 lung): 10.2 µM
- TGI (NCI-H522 lung): 26.9 µM
- GI50 (RXF 393 renal): 1.3 µM
- TGI (RXF 393 renal): 4.59 µM
- GI50 (K-562 leukemia): 3.89 µM
- TGI (K-562 leukemia): > 100 µM
- GI50 (UACC-257 melanoma): 3.43 µM
- TGI (UACC-257 melanoma): 68.3 µM
- GI50 (NCI-H226 lung): 3.18 µM
- TGI (NCI-H226 lung): 18.1 µM
- GI50 (SW-620 colon): 3.9 µM
- TGI (SW-620 colon): 39.5 µM
- GI50 (ACHN renal): 7.01 µM
- TGI (ACHN renal): > 100 µM
- GI50 (U251 CNS): 2.3 µM
- TGI (U251 CNS): 16.5 µM
- GI50 (CAKI-1 renal): 8.39 µM
- TGI (CAKI-1 renal): > 100 µM
- GI50 (SF-539 CNS): 1.38 µM
- TGI (SF-539 CNS): 10.8 µM

SMILES: O=C1CCCC1NC(=O)C(F)(F)F (stereo not given)
- TGI (NCI-H522 lung): > 100 µM
- TGI (RXF 393 renal): > 100 µM
- TGI (K-562 leukemia): > 100 µM
- TGI (UACC-257 melanoma): > 100 µM
- TGI (NCI-H226 lung): > 100 µM
- TGI (SW-620 colon): > 100 µM
- TGI (ACHN renal): > 100 µM
- TGI (U251 CNS): > 100 µM
- TGI (CAKI-1 renal): > 100 µM
- TGI (SF-539 CNS): > 100 µM

SMILES: COC1=CC(=O)[C@]2(C)[C@H](C1=O)C(C)[C@H]2c1ccccc1 (stereo not given in full)
- TGI (NCI-H522 lung): > 100 µM
- TGI (RXF 393 renal): > 100 µM
- TGI (K-562 leukemia): > 100 µM
- TGI (UACC-257 melanoma): > 100 µM
- TGI (NCI-H226 lung): > 100 µM
- TGI (SW-620 colon): > 100 µM
- TGI (ACHN renal): > 100 µM
- TGI (U251 CNS): > 100 µM
- TGI (CAKI-1 renal): > 100 µM
- TGI (SF-539 CNS): > 100 µM

SMILES: O=P1(O)c2ccccc2Nc2cc(C(F)(F)F)ccc21
- TGI (NCI-H522 lung): > 100 µM
- TGI (RXF 393 renal): > 100 µM
- TGI (K-562 leukemia): > 100 µM
- TGI (UACC-257 melanoma): > 100 µM
- TGI (NCI-H226 lung): > 100 µM
- TGI (SW-620 colon): > 100 µM
- TGI (ACHN renal): > 100 µM
- TGI (U251 CNS): > 100 µM
- TGI (CAKI-1 renal): > 100 µM
- TGI (SF-539 CNS): > 100 µM

SMILES: Clc1ccc2c(c1)-c1ccccc1C1=NCCN12
- GI50 (NCI-H522 lung): 1.52 µM
- TGI (NCI-H522 lung): 3.48 µM
- GI50 (RXF 393 renal): 1.51 µM
- TGI (RXF 393 renal): 2.98 µM
- GI50 (K-562 leukemia): 2.2 µM
- TGI (K-562 leukemia): 7.61 µM
- GI50 (UACC-257 melanoma): 1.54 µM
- TGI (UACC-257 melanoma): 3.3 µM
- GI50 (NCI-H226 lung): 1.45 µM
- TGI (NCI-H226 lung): 3.53 µM
- GI50 (SW-620 colon): 1.11 µM
- TGI (SW-620 colon): 6.53 µM
- GI50 (ACHN renal): 1.12 µM
- TGI (ACHN renal): 9.3 µM
- GI50 (U251 CNS): 1.98 µM
- TGI (U251 CNS): 7.14 µM
- GI50 (CAKI-1 renal): 1.83 µM
- TGI (CAKI-1 renal): 5.8 µM
- GI50 (SF-539 CNS): 3 µM
- TGI (SF-539 CNS): 10.4 µM

SMILES: NCCCCN(Cc1nc2ccccc2[nH]1)[C@H]1CCCc2cccnc21
- GI50 (NCI-H522 lung): 19.8 µM
- TGI (NCI-H522 lung): > 64.8 µM
- GI50 (RXF 393 renal): 13.5 µM
- TGI (RXF 393 renal): 66.8 µM
- GI50 (K-562 leukemia): 12.6 µM
- TGI (K-562 leukemia): 43.3 µM
- GI50 (UACC-257 melanoma): 15.3 µM
- TGI (UACC-257 melanoma): 31.4 µM
- GI50 (NCI-H226 lung): 12.5 µM
- TGI (NCI-H226 lung): 44.4 µM
- GI50 (SW-620 colon): 12.6 µM
- TGI (SW-620 colon): > 100 µM
- GI50 (ACHN renal): 26.3 µM
- TGI (ACHN renal): > 100 µM
- GI50 (U251 CNS): 11.3 µM
- TGI (U251 CNS): > 67.8 µM
- GI50 (CAKI-1 renal): 16.1 µM
- TGI (CAKI-1 renal): > 64.4 µM
- GI50 (SF-539 CNS): 13.3 µM
- TGI (SF-539 CNS): 27.6 µM

SMILES: CC1=NN(C(=O)c2ccc(Cl)cc2)C(=O)/C1=C/c1ccc(O)cc1
- TGI (NCI-H522 lung): > 100 µM
- TGI (RXF 393 renal): > 100 µM
- TGI (K-562 leukemia): > 100 µM
- TGI (UACC-257 melanoma): > 100 µM
- TGI (NCI-H226 lung): > 100 µM
- TGI (SW-620 colon): > 100 µM
- TGI (ACHN renal): > 100 µM
- TGI (U251 CNS): > 100 µM
- TGI (CAKI-1 renal): > 100 µM
- TGI (SF-539 CNS): > 100 µM

SMILES: CS(=O)(=O)Nc1cc(-c2ccc3ncnc(Nc4ccc5c(cnn5Cc5ccccc5F)c4)c3c2)cnc1Cl
- GI50 (NCI-H522 lung): 1.18 µM
- TGI (NCI-H522 lung): 8.03 µM
- GI50 (RXF 393 renal): 1.41 µM
- TGI (RXF 393 renal): 5.85 µM
- GI50 (K-562 leukemia): 2.27 µM
- TGI (K-562 leukemia): > 100 µM
- GI50 (UACC-257 melanoma): 1.51 µM
- TGI (UACC-257 melanoma): 9 µM
- GI50 (NCI-H226 lung): 1.74 µM
- TGI (NCI-H226 lung): 11.3 µM
- GI50 (SW-620 colon): 1.94 µM
- TGI (SW-620 colon): > 35.9 µM
- GI50 (ACHN renal): 3.24 µM
- TGI (ACHN renal): > 52.9 µM
- GI50 (U251 CNS): 2.11 µM
- TGI (U251 CNS): 14.4 µM
- GI50 (CAKI-1 renal): 1.71 µM
- TGI (CAKI-1 renal): 5.62 µM
- GI50 (SF-539 CNS): 1.09 µM
- TGI (SF-539 CNS): 4.9 µM
